This is an account of results in patent US11299453B2 (Universität zu Köln, priority 2017, dated 2022).

The structures appear in SMILES notation.

Holding throughout (assay type): cell-based
Experiment [1] deals with residual PSCs in pre-purified cardiac clusters of murine αPIG-AT25 iPSCs. Nature of the experiment: Colony formation assay after treatment of pre-purified miPSC cardiac clusters. The conditions noted are these: 48 h. As to the method:
(§1) Aiming at complete elimination of remaining PSCs in PSC-derived cell aggregates, murine cardiac clusters were pre-purified with 2-4 μg/ml puromycin from day 9 until day 14 of differentiation in order to prevent complete removal of PSCs and then treated with SM6 for 2 days to assess its potential for removal of contaminating PSCs in the absence of puromycin. After treatment, cardiac clusters were dissociated with 0.25% trypsin-EDTA supplemented with 50 U/ml of DNase I and the level of PSC contamination was determined using colony formation assay, flow cytometry for SSEA-1 and RT-PCR for Oct4. In colony formation assays 2×10^5 cells were plated on a 6 cm cell culture dish containing MEF and cultured in maintenance medium supplemented with 1000 U/ml of mLIF for 7-10 days. Developing PSC colonies on MEF plates were quantified and visualized with 1% crystal violet (Fluka Analytical, St. Louis, USA) diluted in methanol (Applichem).
Murine αPIG-AT25 iPSCs were differentiated in spinner flasks and pre-purification of CMs with puromycin was initiated on day 9 for a time period of 5 days, as is schematically illustrated in FIG. 6a). Compared to the standard protocol for the selection of miPSC-CMs, the applied concentration of puromycin was reduced from 8 μg/ml to 2 μg/ml in order to preserve a small population of PSCs in the cardiac clusters which were then treated with 1 μM, 5 μM and 10 μM of compound SM6 for 48 hours.
For quantifying the residual PSCs, the cardiac cluster-derived cells were cultured on MEFs under iPSC conditions to allow PSCs to form colonies which were visualized by crystal violet staining. The pluripotency of grown colonies was confirmed by immunocytochemical stainings for Oct4, at day 7 after plating of CMs from dissociated cardiac clusters on MEF.

The subject of experiment [2] is contaminating colony-forming PSCs in unpurified EBs of murine iPSCs. The experiment is described as follows: Colony formation assay after treatment of unpurified EBs. The conditions noted are these: day 9 to day 16: SM6 1 μM then 5 μM from day 14; puromycin 8 μg/ml. The method, then:
as §1
Purifying the whole CM population including GFP-negative CMs in murine PSC-derived EBs was tested with SM6 as well. […] The percentage of CM population in EBs was monitored by flow cytometry and the amount of contaminating PSCs was quantified by colony formation assay as described above. Fluorescence images of PSC-derived cell aggregates were captured with a Zeiss Axiovert 200M fluorescence microscope and analyzed with Zeiss Axiovision 4.5 software. […]

Experiment [3] has as its system unpurified EBs of murine iPSCs. Nature of the experiment: Flow cytometry (cTnT) and cell yield of unpurified EBs. The conditions noted are these: for cTnT+ CM population / fold increase of CM purity (cTnT+) compared to DMSO-treated control / reduction of total cell yield relative to DMSO control: day 9 to day 16: SM6 1 μM then 5 μM from day 14, puromycin 8 μg/ml. The method, then: Purifying the whole CM population including GFP-negative CMs in murine PSC-derived EBs was tested with SM6 as well. EBs from day 9 of differentiation were treated starting with 1 μM of SM6 for 5 days followed by treatment with 5 μM from day 14 until day 16 of differentiation. The percentage of CM population in EBs was monitored by flow cytometry and the amount of contaminating PSCs was quantified by colony formation assay as described above. Fluorescence images of PSC-derived cell aggregates were captured with a Zeiss Axiovert 200M fluorescence microscope and analyzed with Zeiss Axiovision 4.5 software.
Determination of CM purity in the cell population was performed by flow cytometric analysis. PSC-derived EBs or cardiac clusters were dissociated with 0.25% trypsin-EDTA. Dead cells were stained with LIVE/DEAD fixable dead cell stain kit (Life Technologies) prior to cell fixation using in 4% PFA for 15 min. Immunological staining of cardiac Troponin T (cTnT) was performed in order to detect the total CM population including GFP-negative CMs. […] An anti-cTnT mouse antibody (sc-20025, Santa Cruz, Dallas, USA) and the corresponding isotype control (sc-3878, Santa Cruz) were diluted 1:50 in 0.8% BSA in PBS with 1% saponin and incubated for 30 min at 4° C., respectively. After washing the cells with PBS, cells were incubated with an AF555-conjugated secondary antibody (1:100, A21422, Life Technologies) in 0.8% BSA and 1% saponin in PBS for 1 h at 4° C.
Cells were measured with an Attune acoustic focusing cytometer (Life Technologies) and data was analyzed with the Attune Cytometric software v1.2.5 (Life Technologies). Marker expression was analyzed in a gated population of 10^4 viable cells.
In order to determine whether it is possible to entirely replace puromycin pre-treatment with SM6 and thus circumvent the need for genetic manipulation of PSCs to enable CM selection, the SM6 was supplemented to the differentiation medium of miPSCs from day 9 onwards starting with a concentration of 1 μM which was increased to 5 μM from day 14 until day 16 of differentiation, as is schematically illustrated in FIG. 8a). Control cells received 0.025% DMSO or 8 μg/ml puromycin during this time period (day 9 to day 16 of differentiation).
(In flow cytometry, cells or beads pass a laser one at a time.)

Take `Oc1ccccc1CN[C@@H]1CCCC[C@H]1NCc1ccccc1O` [SM6, (1R,2R)-N,N′-di(2-hydroxybenzyl)-1,2-diaminocyclohexane]: in experiment [1] (1 μM), the “reduction of the number of colonies compared to DMSO-treated control” value is 71.9±21.19%. Moreover, the “number of colonies after plating of 2×10^5 cells” value (shortened to “number … of 2×10^5 cells”) in experiment [1] (5 μM) worked out at 2.00±2.94 colonies. Besides, in experiment [1] (10 μM), the “number … of 2×10^5 cells” value turned out to be 0.37±0.60 colonies. The “reduction of contaminating colony-forming PSCs” value in experiment [2] is recorded as 98.88±1.04%. Moreover, in experiment [3] (SM6 1 μM then 5 μM from day 14, p<0.01), the “fold higher yield of cTnT+ CMs compared to the treatment with puromycin” value worked out at 2.72±1.61 fold. In experiment [3], the “cTnT+ CM population” value turned out to be 77.57±12.26%, the “fold increase of CM purity (cTnT+) compared to DMSO-treated control” value is listed as 2.56±1.25 fold and the “reduction of total cell yield relative to DMSO control” value is reported as 56.6±10.44%. Besides, the “CM yield higher compared to the DMSO-treated control group” value in experiment [3] (in three out of five experiments) is reported as 31-86%.
Consider `COc1ccc(C[C@H](N)C(=O)N[C@H]2[C@@H](O)[C@H](n3cnc4c(N(C)C)ncnc43)O[C@@H]2CO)cc1` [puromycin, reference compound], for which, in experiment [1] (puromycin 8 μg/ml), the “number … of 2×10^5 cells” value was found to be 28.9±23.37 colonies and the “reduction of the number of colonies compared to DMSO-treated control” value is listed as 64.87±25.55%. The “reduction of contaminating colony-forming PSCs” value in experiment [2] is on record as 97.55±4.02%. For the same molecule, in experiment [3], the “cTnT+ CM population” value is recorded as 93.26±3.05%, the “fold increase of CM purity (cTnT+) compared to DMSO-treated control” value worked out at 3.08±1.42 fold and the “reduction of total cell yield relative to DMSO control” value came out at 92.17±3.53%.
